Data on twelve molecules can be found in PubChem BioAssay (NCI).

What all share (test): NCI tumour cell line growth inhibition, 48 h
Assay [1] deals with A549 NSCLC.
In assay [2] the test system is HOP-92 NSCLC.
The subject of assay [3] is LOX IMVI melanoma.
Assay [4] concerns NCI-H460 lung.
Assay [5] relates to SF-539 CNS.
The subject of assay [6] is SR leukemia.
Assay [7] relates to TK-10 renal.
The test system of assay [8] is NCI/ADR-RES ovarian.
Assay [9] concerns T-47D breast.
The test system of assay [10] is MDA-MB-435.

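Where inhibition never reached the appropriate level, the endpoint shown equals the highest concentration tested. Otherwise, values were interpolated linearly from a five-concentration, 48-hour dose response in 96-well plates. The concentration for 50% growth inhibition is given as GI50. TGI: total growth inhibition.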

For `O=C(/C=C\c1ccccc1O)c1ccc(O)cc1O`, the TGI in assay [1], in assay [2], in [3], in assay [4], in assay [5] and in assay [6] was greater than 100 µM in each case. The same molecule registered a TGI in assay [7] greater than 100 µM.

Turning to `C=C(c1ccc(OC)c(/C=C/C(=O)c2ccc3c(c2)OCO3)c1)c1cc(OC)c(OC)c(OC)c1`, the GI50 in assay [1] is 3.54 µM; in assay [2], 1.78 µM; in assay [3], 1.58 µM; in assay [4], 2.34 µM; in assay [8] it was 2.77 µM; in assay [5], 2.36 µM. Moreover, the GI50 was 0.907 µM in assay [6], 2.66 µM in [9] and 4.79 µM in [7]. Further, the TGI in assay [1] is greater than 100 µM; in assay [2] it was greater than 100 µM; in assay [3] it was 3.52 µM; in assay [4] it was 6.21 µM; in assay [8], 37.2 µM; in assay [5] it was 7.24 µM. The TGI in assay [6], in assay [9] and in assay [7] was greater than 100 µM each time.

Turning to `COc1c/c(=C2\C=c3ccccc3=N2)[nH]/c1=C\c1[nH]c(C)cc1C`, the GI50 in [1] is 0.139 µM; in [2], 0.111 µM; in assay [3], less than 0.01 µM; in [10], 0.0136 µM; in [4], 0.0268 µM; in assay [8], 0.17 µM. Moreover, the figures for the GI50 in assay [5], in assay [9] and in [7] were 0.0466 µM, less than 0.0211 µM and 0.106 µM, respectively. For the same molecule, the TGI in assay [1] was 19.2 µM; in assay [2] it was 1.97 µM; in [10], 0.0951 µM; in assay [4], greater than 100 µM; in assay [8], greater than 55.3 µM; in assay [5] it was 4.19 µM. For the same molecule, the TGI in [9] was 6.05 µM; in [7] it was 36.7 µM.

`O=C1C=C(Nc2ccc(Cl)cc2Cl)c2ccccc2C1=O`: the TGI in assay [1] is greater than 100 µM; in [2], 56.5 µM; in [4], greater than 100 µM; in [5], greater than 100 µM; in assay [6] it was 74.9 µM; in assay [7], greater than 100 µM.

Consider `O=c1c2c(nc3n1CCS3)[nH]c1cc([N+](=O)[O-])ccc12`, for which the GI50 in assay [1] is greater than 100 µM; in [2], 67.9 µM; in [3], greater than 100 µM; in assay [10], greater than 100 µM; in assay [4], greater than 100 µM; in assay [8] it was greater than 100 µM. For the same molecule, the results for the GI50 in assay [5], in [9] and in assay [7] were greater than 100 µM, 45 µM and greater than 100 µM, respectively. The TGI in assay [1], in [2], in [3], in [10], in assay [4] and in [8] was greater than 100 µM each time. Further, the TGI in [5], in assay [9] and in assay [7] was greater than 100 µM throughout.

`Cc1c(C)c2ccc3oc4ccccc4c3c2oc1=O`: the TGI in assay [1], in assay [2], in assay [3], in assay [4], in assay [5] and in assay [6] was greater than 100 µM each time. The TGI in assay [7] was greater than 100 µM.

Regarding `CCC[C@H]1O[C@@H]2CC(=O)O[C@@H]2C2=C1C(=O)C=CC2=O`, the TGI in assay [1] was greater than 58.1 µM; in [2], 8.31 µM; in [3] it was 39.8 µM; in assay [4], greater than 100 µM; in assay [5] it was 33.6 µM; in assay [6], 49.8 µM. In [7], this molecule had a TGI greater than 57.3 µM.

Take `CN(CCS(=O)(=O)N1C(=O)C2CCCN2C(=O)[C@@H]1Cc1ccccc1)C(=O)OCc1ccccc1` (some centres not stated): the TGI in assay [1], in assay [2], in assay [3], in assay [4], in assay [5] and in assay [6] was greater than 100 µM in each case. Moreover, the TGI in assay [7] was greater than 100 µM.

Consider `C=C[C@@H](C)[C@]1(C(=O)OC)CCCC12OCCO2`, for which the TGI in assay [1], in [2], in assay [3], in [4], in assay [5] and in [6] was greater than 100 µM in each case. The same molecule gave a TGI in assay [7] greater than 100 µM.

For `Cc1ccc(C)c(N2C(=O)C(=O)C(c3nc4ccccc4s3)/C(=N/N)C2=O)c1` (configuration not stated), the TGI in [1], in [2], in assay [3], in assay [4], in assay [5] and in assay [6] was greater than 100 µM in each case. In [7], this molecule came in with a TGI greater than 100 µM.

In the case of `COc1ccc(C(=O)C(CN(C)C)CN(C)C)cc1`, the GI50 in assay [1] was 19.1 µM; in [2], 2.4 µM; in assay [3], 2.08 µM; in [10], 2.84 µM; in [4], 19.2 µM; in assay [8], 2.6 µM. Besides, the values for the GI50 in assay [5], in assay [9] and in assay [7] were 7.6 µM, 1.86 µM and 2.32 µM, respectively. For the same molecule, the TGI was found to be 43.4 µM in [1]; 9.84 µM in assay [2]; 5.04 µM in assay [3]; 8.58 µM in assay [10]; 40.1 µM in [4]; 6.42 µM in [8]. In addition, the results for the TGI in assay [5], in [9] and in assay [7] were 20.7 µM, 5.28 µM and 6.98 µM, respectively.

In the case of `CC(C)C[C@H](NC(=O)CNC(=O)c1cc(Cl)ccc1Cl)B(O)O`, the GI50 in assay [1] was 0.046 µM; in assay [2], 0.0231 µM; in assay [3] it was 0.0224 µM; in assay [4], 0.0831 µM; in [8], 0.183 µM; in assay [5] it was less than 0.0125 µM. For the same molecule, the results for the GI50 in assay [6], in [9] and in assay [7] were less than 0.0152 µM, less than 0.0156 µM and less than 0.0138 µM, respectively. The TGI in [1] was 7.6 µM; in assay [2], 0.165 µM; in assay [3], 0.0597 µM; in assay [4], 0.919 µM; in [8], greater than 100 µM; in assay [5] it was 0.0258 µM. The TGI in [6] was 0.385 µM; in [9], 0.0602 µM; in [7], 0.0517 µM.
